Assay results as given in patent US20220267380A1, “Glycopeptides Increasing Lipid Synthesis” (TFCHEM, priority 2019, published 2022).

Test system: normal human dermal fibroblasts (NHDF)
Assay: Gene expression in NHDF, full transcriptome analysis with Affymetrix U219 microarray
Type: cell-based
Conditions: NHDF
Description: In the present study, the transcriptional effects (modulation of gene expression) of compounds 1, 2, 3 and 4 were evaluated on normal human dermal fibroblasts (NHDF) under basal conditions.
More specifically, the comparative analysis of the different transcriptomic profiles was performed using an Affymetrix GeneAtlas platform and the human “full transcriptome” U219 chip, which includes 36,000 transcripts and variants.
Fibroblasts were seeded in 24-well plates and cultured in culture medium for 24 hours. The medium was then replaced by assay medium and cells were incubated for further 24 hours. The medium was replaced by assay medium containing or not (control) the test compounds at different concentrations and the cells were preincubated for 24 hours. All experimental conditions were performed in triplicate. At the end of incubation, the culture supernatants were removed and the cells were washed in a phosphate buffered saline (PBS) solution and immediately frozen at −80° C.
Before RNA extraction, the replicates were pooled. Total RNA was extracted from each sample using TriPure Isolation Reagent® according to the supplier's instructions. The amount and quality of total RNA were evaluated for all samples using capillary electrophoresis (Bioanalyzer 2100, Agilent technologies). From each RNA, a labeled and amplified anti-sens RNA (aRNA) was obtained using GeneChip 3′IVT PLUS Kit (Affymetrix). For each labeled and amplified aRNA sample the profiles were evaluated before and after fragmentation using capillary electrophoresis (Bioanalyzer 2100, Agilent technologies). Hybridization of fragmented aRNA onto Affymetrix® U219 chip (36,000 transcripts and variants) was performed in the GeneAtlas™ fluidics Affymetrix® hybridization station for 20 hours at 45° C. U219 chip was analyzed using the GeneAtlas™ Imaging station (Affymetrix®—resolution 2 μm) to generate fluorescence intensity data.
Expression Console and Quality controls: data were normalized with the Expression Console (Affymetrix®) software using RMA algorithm. Then a quality control of the labeling and the hybridization was performed. Hybridization and labeling steps successfully passed the quality controls for these experiments.
Data reduction, Excel file description: once normalized with Expression Console, data were transferred into a Microsoft Excel® file in order to go further into data reduction.
Calculation and tools were added in order to rank and sort data, and finally to support data interpretation. Detection thresholds in terms of fold change were defined and applied on normalized data.
Results are considered and presented or commented per gene (and not probe). A probe set is a collection of probes designed to interrogate a given sequence of a gene. For data interpretation, the most important relative expression value obtained with one probe is considered to be representative of the corresponding gene. The file contains the following data: • Relative expression (RE) for each sample, • Fold change calculation, • Gene information.

[1] = relative expression adjusted to detection limit (<20), 10 mg/ml, 24 h

SMILES: CC(=O)N(CCCC[C@H](N)C(=O)O)CC(F)(F)[C@]1(O)O[C@H](CO)[C@H](O)[C@H](O)[C@H]1O [Compound 4]
- effect of treatment of NHDF on lipid synthesis (transcriptional): up regulation of lipids synthesis, including fatty acids, cholesterol or ceramides
- Fold change, CYP51A1///LRRD1 (10 mg/ml, 24 h, vs control): 2.38
- Fold change, DHCR7 (10 mg/ml, 24 h, vs control): 3.24
- Fold change, HMGCS1 (10 mg/ml, 24 h, vs control): 2.39
- Fold change, HSD17B7 (10 mg/ml, 24 h, vs control): 2.43
- Fold change, MVD (10 mg/ml, 24 h, vs control): 2.77
- Fold change, SC5D (10 mg/ml, 24 h, vs control): 2.06
- Fold change, SREBF1 (10 mg/ml, 24 h, vs control): 3.15
- Fold change, POR (10 mg/ml, 24 h, vs control, Affymetrix probe set 11716114_x_at): 3.68
- Fold change, G6PD (10 mg/ml, 24 h, vs control, Affymetrix probe set 11716292_a_at): 2.53
- Fold change, G6PD (10 mg/ml, 24 h, vs control, Affymetrix probe set 11716293_x_at): 2.48
- Fold change, INSIG1 (10 mg/ml, 24 h, vs control, Affymetrix probe set 11716338_a_at): 2.73
- Fold change, INSIG1 (10 mg/ml, 24 h, vs control, Affymetrix probe set 11716339_a_at): 3.73
- Fold change, NSMAF (10 mg/ml, 24 h, vs control, Affymetrix probe set 11717214_s_at): 2.01
- Fold change, LSS (10 mg/ml, 24 h, vs control, Affymetrix probe set 11717620_a_at): 2.14
- Fold change, ASAH1 (10 mg/ml, 24 h, vs control, Affymetrix probe set 11717722_s_at): 2.54
- Fold change, EBP (10 mg/ml, 24 h, vs control, Affymetrix probe set 11717859_a_at): 2.48
- Fold change, COL4A3BP (10 mg/ml, 24 h, vs control, Affymetrix probe set 11721537_a_at): 2.46
- Fold change, COL4A3BP (10 mg/ml, 24 h, vs control, Affymetrix probe set 11721538_a_at): 2.19
- Fold change, HTRA2 (10 mg/ml, 24 h, vs control, Affymetrix probe set 11726630_a_at): 2.06
- Fold change, LSS (10 mg/ml, 24 h, vs control, Affymetrix probe set 11731324_a_at): 3.13
- Fold change, CLN3 (10 mg/ml, 24 h, vs control, Affymetrix probe set 11731408_x_at): 3.73
- Fold change, NSMAF (10 mg/ml, 24 h, vs control, Affymetrix probe set 11740559_a_at): 2.34
- Fold change, NSMAF (10 mg/ml, 24 h, vs control, Affymetrix probe set 11740560_x_at): 2.19
- Fold change, ASAH1 (10 mg/ml, 24 h, vs control, Affymetrix probe set 11740580_at): 2.44
- Fold change, ASAH1 (10 mg/ml, 24 h, vs control, Affymetrix probe set 11740581_s_at): 2.41
- Fold change, ASAH1 (10 mg/ml, 24 h, vs control, Affymetrix probe set 11740582_a_at): 3.46
- Fold change, ASAH1 (10 mg/ml, 24 h, vs control, Affymetrix probe set 11743547_a_at): 3.97
- Fold change, TM7SF2 (10 mg/ml, 24 h, vs control, Affymetrix probe set 11744179_x_at): 2.10
- Fold change, CLN3 (10 mg/ml, 24 h, vs control, Affymetrix probe set 11744874_x_at): 3.98
- Fold change, POR (10 mg/ml, 24 h, vs control, Affymetrix probe set 11746973_x_at): 3.22
- Fold change, CLN3 (10 mg/ml, 24 h, vs control, Affymetrix probe set 11747203_x_at): 2.97
- Fold change, PPP2R1A (10 mg/ml, 24 h, vs control, Affymetrix probe set 11747739_a_at): 2.33
- Fold change, PPP2R1A (10 mg/ml, 24 h, vs control, Affymetrix probe set 11747740_x_at): 2.66
- Fold change, TM7SF2 (10 mg/ml, 24 h, vs control, Affymetrix probe set 11748279_s_at): 2.46
- Fold change, POR (10 mg/ml, 24 h, vs control, Affymetrix probe set 11748368_x_at): 3.37
- Fold change, CLN3 (10 mg/ml, 24 h, vs control, Affymetrix probe set 11748869_a_at): 3.24
- Fold change, CLN3 (10 mg/ml, 24 h, vs control, Affymetrix probe set 11748870_x_at): 3.33
- Fold change, EBP (10 mg/ml, 24 h, vs control, Affymetrix probe set 11749332_x_at): 2.22
- Fold change, COL4A3BP (10 mg/ml, 24 h, vs control, Affymetrix probe set 11749683_a_at): 2.62
- Fold change, DHCR24 (10 mg/ml, 24 h, vs control, Affymetrix probe set 11751337_a_at): 2.11
- Fold change, DHCR24 (10 mg/ml, 24 h, vs control, Affymetrix probe set 11751338_x_at): 2.31
- Fold change, PLA2G15 (10 mg/ml, 24 h, vs control, Affymetrix probe set 11751383_a_at): 2.52
- Fold change, G6PD (10 mg/ml, 24 h, vs control, Affymetrix probe set 11752486_a_at): 3.12
- Fold change, CLN3 (10 mg/ml, 24 h, vs control, Affymetrix probe set 11753053_x_at): 3.08
- Fold change, PLA2G15 (10 mg/ml, 24 h, vs control, Affymetrix probe set 11755396_a_at): 3.26
- Fold change, CLN3 (10 mg/ml, 24 h, vs control, Affymetrix probe set 11756016_x_at): 2.80
- Fold change, HTRA2 (10 mg/ml, 24 h, vs control, Affymetrix probe set 11756421_x_at): 2.15
- Fold change, POR (10 mg/ml, 24 h, vs control, Affymetrix probe set 11757517_x_at): 2.16
- Fold change, COL4A3BP (10 mg/ml, 24 h, vs control, Affymetrix probe set 11758133_s_at): 2.04
- REadj2, CYP51A1///LRRD1 [1]: 2314.08
- REadj2, DHCR7 [1]: 1204.72
- REadj2, HMGCS1 [1]: 1284.34
- REadj2, HSD17B7 [1]: 166.42
- REadj2, MVD [1]: 530.60
- REadj2, SC5D [1]: 537.03
- REadj2, SREBF1 [1]: 456.21
- REadj2, G6PD (relative expression adjusted to detection limit (<20), 10 mg/ml, 24 h, Affymetrix probe set 11716292_a_at): 438.70
- REadj2, G6PD (relative expression adjusted to detection limit (<20), 10 mg/ml, 24 h, Affymetrix probe set 11716293_x_at): 290.47
- REadj2, INSIG1 (relative expression adjusted to detection limit (<20), 10 mg/ml, 24 h, Affymetrix probe set 11716338_a_at): 1272.02
- REadj2, INSIG1 (relative expression adjusted to detection limit (<20), 10 mg/ml, 24 h, Affymetrix probe set 11716339_a_at): 1678.67
- REadj2, EBP (relative expression adjusted to detection limit (<20), 10 mg/ml, 24 h, Affymetrix probe set 11717859_a_at): 1008.77
- REadj2, HTRA2 (relative expression adjusted to detection limit (<20), 10 mg/ml, 24 h, Affymetrix probe set 11726630_a_at): 252.64
- REadj2, TM7SF2 (relative expression adjusted to detection limit (<20), 10 mg/ml, 24 h, Affymetrix probe set 11744179_x_at): 62.22
- REadj2, TM7SF2 (relative expression adjusted to detection limit (<20), 10 mg/ml, 24 h, Affymetrix probe set 11748279_s_at): 100.08
- REadj2, EBP (relative expression adjusted to detection limit (<20), 10 mg/ml, 24 h, Affymetrix probe set 11749332_x_at): 812.08
- REadj2, DHCR24 (relative expression adjusted to detection limit (<20), 10 mg/ml, 24 h, Affymetrix probe set 11751337_a_at): 176.26
- REadj2, DHCR24 (relative expression adjusted to detection limit (<20), 10 mg/ml, 24 h, Affymetrix probe set 11751338_x_at): 345.60
- REadj2, PLA2G15 (relative expression adjusted to detection limit (<20), 10 mg/ml, 24 h, Affymetrix probe set 11751383_a_at): 103.53
- REadj2, G6PD (relative expression adjusted to detection limit (<20), 10 mg/ml, 24 h, Affymetrix probe set 11752486_a_at): 220.41
- REadj2, PLA2G15 (relative expression adjusted to detection limit (<20), 10 mg/ml, 24 h, Affymetrix probe set 11755396_a_at): 177.48
- REadj2, HTRA2 (relative expression adjusted to detection limit (<20), 10 mg/ml, 24 h, Affymetrix probe set 11756421_x_at): 227.59
